Experimental findings from patent publication US11707462B2, “Checkpoint kinase 1 (CHK1) inhibitors and uses thereof” (Boundless Bio, Inc., priority 2021, dated 2023) are described below.

SMILES strings stand for the structures. Where only a bound is given, the exact number is not on record here.

Assay [1] concerns the target T1, Full-length human Chk1 protein (Homo sapiens, UniProt O14757).
T1 construct: purchased Carna Biosciences, Inc. 02-117
T1 sequence (O14757 1-476): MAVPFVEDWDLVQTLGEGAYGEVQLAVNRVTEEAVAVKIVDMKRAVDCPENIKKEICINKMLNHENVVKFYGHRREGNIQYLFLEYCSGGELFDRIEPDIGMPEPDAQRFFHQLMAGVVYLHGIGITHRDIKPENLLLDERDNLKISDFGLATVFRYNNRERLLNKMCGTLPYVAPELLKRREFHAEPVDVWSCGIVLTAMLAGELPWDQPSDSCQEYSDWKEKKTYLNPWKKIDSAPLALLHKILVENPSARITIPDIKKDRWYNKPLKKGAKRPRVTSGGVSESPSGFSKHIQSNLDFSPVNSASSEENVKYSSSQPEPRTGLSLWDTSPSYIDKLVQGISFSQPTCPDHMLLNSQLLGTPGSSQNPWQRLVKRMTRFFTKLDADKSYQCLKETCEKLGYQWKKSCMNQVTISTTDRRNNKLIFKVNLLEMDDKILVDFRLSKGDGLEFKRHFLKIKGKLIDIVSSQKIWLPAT
Description: Kinase HTRF biochemical assay (HTRF KinEASE), Chk1 enzyme activity. To be noted: full-length human Chk1, ATP 1 mM, 60 minutes at room temperature. A digest of the protocol:
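Full-length human Chk1 (0.012 ng/μL) in buffer with 5 mM MgCl2 and 1 mM DTT, preincubated with compound 10 min at room temperature; reaction with 120 nM biotinylated STK substrate 1 and 1 mM ATP for 60 min at room temperature. HTRF detection via cryptate antibody/streptavidin-XL665; IC50 from 10-point duplicate curves.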

A further assay has as its system p-CHK1 (Ser345). Kind of assay: AlphaLISA SureFire Ultra p-CHK1 (Ser345) cellular assay in HT29 cells. The format is cell-based. As to conditions: Homo sapiens, HT-29, 16 h at 37° C. The method, boiled down:
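HT29 cells treated with compounds over a 10-point, 3-fold dilution series for 16 h at 37° C., then lysed; p-CHK1 (Ser345) in lysates measured by AlphaLISA SureFire Ultra (acceptor and donor steps 1 h each at room temperature). IC50 from dose-response curve fits.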
(Bead proximity is the source of the signal in Alpha formats.)

A word on the IC50: it is the concentration that gives 50% inhibition. For the molecule `N#Cc1cnc(Nc2cc(-c3nc(C(F)(F)F)ccc3O[C@@H]3CC[C@H](N)C3)[nH]n2)cn1` [Example 3-49, 5-((5-(3-(((1R,3S)-3-aminocyclopentyl)oxy)-6-(trifluoromethyl)pyridin-2-yl)-1H-pyrazol-3-yl)amino)pyrazine-2-carbonitrile], the IC50 was 10 to 100 nM in assay [1] and 100 to 500 nM with p-CHK1 (Ser345).
The like results for `COc1cc(Cl)cc(O[C@H]2CC[C@H](N)CC2)c1-c1cc(Nc2cnc(C#N)cn2)n[nH]1` [Example 1-21, 5-((5-(2-(((1r,4r)-4-aminocyclohexyl)oxy)-4-chloro-6-methoxyphenyl)-1H-pyrazol-3-yl)amino)pyrazine-2-carbonitrile] were, in that order, at most 10 nM and 50 to 100 nM.
Turning to `COc1cc(F)c(-c2cc(Nc3cnc(C#N)cn3)n[nH]2)c(O[C@@H]2CC[C@H](N)C2)c1` [Example 1-41, 5-((5-(2-(((1R,3S)-3-aminocyclopentyl)oxy)-6-fluoro-4-methoxyphenyl)-1H-pyrazol-3-yl)amino)pyrazine-2-carbonitrile], the IC50 in assay [1] was at most 10 nM; in the assay with p-CHK1 (Ser345) it was 100 to 500 nM.
Turning to `N#Cc1cnc(Nc2cc(-c3ncccc3O[C@@H]3CC[C@H](N)C3)[nH]n2)cn1` [Example 1-63, 5-((5-(3-(((1R,3S)-3-aminocyclopentyl)oxy)pyridin-2-yl)-1H-pyrazol-3-yl)amino)pyrazine-2-carbonitrile], the IC50 in assay [1] lay in the range of 10 to 100 nM; in the assay on p-CHK1 (Ser345), 100 to 500 nM.
On to `N#Cc1cnc(Nc2cc(-c3ccccc3O[C@H]3C[C@@H](N)C3)[nH]n2)cn1` [Example 1-10, 5-((5-(2-((1s,3s)-3-aminocyclobutoxy)phenyl)-1H-pyrazol-3-yl)amino)pyrazine-2-carbonitrile], for which the IC50 is 100 to 500 nM in assay [1] and over 1000 nM in the assay with p-CHK1 (Ser345).
For `COc1cccc(O[C@H]2CC[C@H](N)CC2)c1-c1cc(Nc2cnc(C#N)cn2)n[nH]1` [Example 1-1, 5-((5-(2-(((lr,4r)-4-aminocyclohexyl)oxy)-6-methoxyphenyl)-1H-pyrazol-3-yl)amino)pyrazine-2-carbonitrile], the IC50 is at most 10 nM in assay [1] and 50 to 100 nM with p-CHK1 (Ser345).
With `N#Cc1cnc(Nc2cc(-c3c(F)cccc3O[C@H]3CCCC[C@H](N)C3)[nH]n2)cn1` [Example 3-38, 5-((5-(2-(((1S,3S)-3-aminocycloheptyl)oxy)-6-fluorophenyl)-1H-pyrazol-3-yl)amino)pyrazine-2-carbonitrile], the half-inhibitory concentration (IC50) in assay [1] is at most 10 nM; in the assay with p-CHK1 (Ser345) it was 50 to 100 nM.
For `COc1cccc(O[C@H]2CC[C@@H](N)C2)c1-c1cc(Nc2cnc(C#N)cn2)n[nH]1` [Example 2-2, 5-((5-(2-(((1S,3R)-3-aminocyclopentyl)oxy)-6-methoxyphenyl)-1H-pyrazol-3-yl)amino)pyrazine-2-carbonitrile], the IC50 is 10 to 100 nM in assay [1] and 500 to 1000 nM with p-CHK1 (Ser345).
The like results for `CC(C)c1ccc(O[C@@H]2CC[C@H](N)C2)c(-c2cc(Nc3cnc(C#N)cn3)n[nH]2)n1` [Example 3-46, 5-((5-(3-(((1R,3S)-3-aminocyclopentyl)oxy)-6-isopropylpyridin-2-yl)-1H-pyrazol-3-yl)amino)pyrazine-2-carbonitrile] were, in that order, at most 10 nM and 50 to 100 nM.
As to `CN[C@H]1CC[C@@H](Oc2cccc(OC)c2-c2cc(Nc3cnc(C#N)cn3)n[nH]2)C1` [Example 1-46, 5-((5-(2-methoxy-6-(((1R,3S)-3-(methylamino)cyclopentyl)oxy)phenyl)-1H-pyrazol-3-yl)amino)pyrazine-2-carbonitrile], the figures for the IC50 (in assay [1]; in the assay on p-CHK1 (Ser345)) were at most 10 nM and at most 50 nM, respectively.
